This note sets out measurements from patent publication US7241787B2, “Substituted N-cycloexylimidazolinones, process for their preparation and their use as medicaments” (Sanofi-Aventis Deutschland GmbH, priority 2004, dated 2007).

pIC50: −log10 of the molar value.

T1 sequence (Q99705 whole entry): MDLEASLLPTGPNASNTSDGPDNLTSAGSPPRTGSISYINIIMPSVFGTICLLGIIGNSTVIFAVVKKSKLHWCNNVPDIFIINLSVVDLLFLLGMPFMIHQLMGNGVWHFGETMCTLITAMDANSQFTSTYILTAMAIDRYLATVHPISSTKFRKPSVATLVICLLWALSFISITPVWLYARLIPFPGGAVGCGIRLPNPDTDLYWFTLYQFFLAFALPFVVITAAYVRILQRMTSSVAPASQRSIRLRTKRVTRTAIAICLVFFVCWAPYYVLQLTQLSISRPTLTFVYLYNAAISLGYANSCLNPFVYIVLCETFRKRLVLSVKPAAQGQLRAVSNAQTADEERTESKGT

The test has as its target T1, human MCH receptor (Homo sapiens, UniProt Q99705).
T1 construct: expressed in transfected cells
Description: Functional measurements of cellular calcium flux (FLIPR) to determine IC50 values. Format: cell-based. To be noted: recombinant HEK293 cell line expressing the human MCH receptor, calcium flux after addition of agonist (MCH) in presence of ligand. The text has this:
Functional measurements to determine IC50 values
Cloning of the cDNA for the human MCH receptor, preparation of a recombinant HEK293 cell line which expresses the human MCH receptor, and functional measurements with the recombinant cell line took place in analogy to the description by Audinot et al. (J. Biol. Chem. 276, 13554–13562, 2001). A difference from the reference was, however, the use of the plasmid pEAK8 from EDGE Biosystems (USA) for the construction of the expression vector. The host used for the transfection was a transformed HEK cell line named “PEAK Stable Cells” (likewise from EDGE Biosystems). Functional measurements of the cellular calcium flux after addition of agonist (MCH) in the presence of ligand of the invention took place with the aid of the FLIPR apparatus from Molecular Devices (USA), using protocols of the apparatus manufacturer.
For orientation: A change in cytosolic calcium serves as a functional read-out for many receptors and channels.
A word on the pIC50: it is the negative decadic logarithm of the IC50, by convention in mol/L. For `CN(C)CCO[C@H]1CC[C@H](n2ccn(-c3ccc(OC4CCCC4)cc3)c2=O)CC1` [Example 2, Trans-1-(4-cyclopentyloxy-phenyl)-3-[4-(2-dimethylaminoethoxy)cyclohexyl]-1,3-dihydroimidazol-2-one], the negative-log IC50 (pIC50) was 5.70 to 8.00.
Consider `O=c1n(-c2ccc(Oc3ccccc3)cc2)ccn1C1CCC(N2CCNCC2)CC1` (stereo not shown) [Example 5], for which the negative logarithm of the IC50 (pIC50) was 5.70 to 8.00.
The figure for `O=c1n(-c2ccc(Oc3ccccc3)cc2)ccn1C1CCC(N2CCN(CCO)CC2)CC1` (stereo not shown) [Example 3] is 5.00 to 5.70.
The figure for `O=c1n(-c2ccc(Oc3ccccc3)cc2)ccn1C1CCC(NC2CN3CCC2CC3)CC1` (stereo not shown) [Example 6] is 5.00 to 5.70.
The same measure for `O=c1n(-c2ccc(Oc3ccccc3)cc2)ccn1C1CCC(N2CCCNCC2)CC1` (stereo not shown) [Example 8]: 5.70 to 8.00; for `CN1CCN(C2CCC(n3ccn(-c4ccc(Oc5ccccc5)cc4)c3=O)CC2)CC1` (stereo not shown) [Example 9]: 5.00 to 5.70.
In the case of `CC(=O)N[C@@H]1CCN(C2CCC(n3ccn(-c4ccc(Oc5ccccc5)cc4)c3=O)CC2)C1` (stereo partly drawn) [Example 1, (R)-N-(1-{4-[2-oxo-3-(4-phenoxyphenyl)-2,3-dihydroimidazol-1-yl]cyclohexyl}pyrrolidin-3-yl)acetamide], the pIC50 is 5.70 to 8.00.
